Assay results as given in patent publication US9428455B2, “Process for annealing amorphous atorvastatin” (Pfizer Inc., priority 2005, dated 2016).
Counter-ions that a name gives are not always drawn.

Assay type: physicochemical
Method: The amorphous atorvastatin calcium was loaded into 20 ml glass vials (approximately 1 g per vial), and heated at 100±5° C. for 1, 6, and 18 hours in an oven. After heating, the powder was transferred from the vials to 15 ml amber screw-cap bottles, and set-up on stability at 50° C./20% RH. In addition, unannealed amorphous atorvastatin calcium, which was loaded in 15 ml amber screw-cap bottles, was placed on stability as a control.
The annealed amorphous atorvastatin calcium was analyzed for impurities and atorvastatin degradation products using HPLC, by evaluating the ratio of peak integration compared to the total integrated peak areas. […] The material was analyzed by HPLC (Zorbax SB C8 column, 25.0 cm×4.6 mm, HPLC: Hewlett Packard 1100 series, 20 μl injection volume, flow of 1.5 mL/min). […]
Stability data obtained for three annealed samples and the control sample are graphically illustrated in FIGS. 1 to 4. […] In order to express stabilization by annealing in a more quantitative term, relative degradation rate constants, krel, were determined from the data presented in FIGS. 1 to 4. The krel were calculated using Eq. 1: krel=(k/k0)*100% Eq. 1 where k is the zero order rate constant for annealed samples, and k0 is the zero order rate constant for the control sample; k and k0 were determined from the data presented in FIGS. 1 to 4.

Relative degradation rate for total degradation products, less than in the control: 34%
Structure (SMILES): CC(C)c1c(C(=O)Nc2ccccc2)c(-c2ccccc2)c(-c2ccc(F)cc2)n1CC[C@@H](O)C[C@@H](O)CC(=O)O (relative stereo) [amorphous atorvastatin calcium, [R—(R*,R*)]-2-(4-fluorophenyl)-β,δ-dihydroxy-5-(1-methylethyl)-3-phenyl-4-[(phenylamino)carbonyl]-1H-pyrrole-1-heptanoic acid calcium salt (2:1) trihydrate]
